From patent US8937039B2, “Peptide-based peroxidase inhibitors and methods of using same” (The Medical College of Wisconsin, Inc., priority 2009, dated 2015)
Entries after “also recorded” stand apart in the source; their conditions may differ. Residues, ends and D or L forms follow the SMILES beside them.

How the values were obtained:
[1] = target: T1, NADPH oxidase (NOX) (Homo sapiens, UniProt P04839); experiment: PMA-stimulated HL-60 cell superoxide formation (SOD-inhibitable cytochrome C reduction); type: cell-based; conditions: cytochrome C assay
T1 construct: host or cells: HL-60 cells stimulated with PMA
T1 sequence (P04839 2-570 limits assumed): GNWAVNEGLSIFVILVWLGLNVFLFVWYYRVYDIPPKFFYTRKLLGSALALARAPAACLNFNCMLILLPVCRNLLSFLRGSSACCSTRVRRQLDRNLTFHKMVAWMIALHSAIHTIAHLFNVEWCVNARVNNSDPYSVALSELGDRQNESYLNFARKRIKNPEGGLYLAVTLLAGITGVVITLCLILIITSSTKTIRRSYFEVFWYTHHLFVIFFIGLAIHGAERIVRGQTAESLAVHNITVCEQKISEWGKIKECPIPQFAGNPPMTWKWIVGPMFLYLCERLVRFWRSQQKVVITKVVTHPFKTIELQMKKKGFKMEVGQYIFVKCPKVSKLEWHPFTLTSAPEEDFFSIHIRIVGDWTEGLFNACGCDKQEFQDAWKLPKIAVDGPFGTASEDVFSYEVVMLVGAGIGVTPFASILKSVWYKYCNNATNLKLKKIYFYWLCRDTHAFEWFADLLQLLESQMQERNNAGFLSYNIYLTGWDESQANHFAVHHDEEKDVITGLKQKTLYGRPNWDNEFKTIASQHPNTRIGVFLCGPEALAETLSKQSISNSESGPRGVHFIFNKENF
T1 sequence (P13498 2-195 partner limits assumed): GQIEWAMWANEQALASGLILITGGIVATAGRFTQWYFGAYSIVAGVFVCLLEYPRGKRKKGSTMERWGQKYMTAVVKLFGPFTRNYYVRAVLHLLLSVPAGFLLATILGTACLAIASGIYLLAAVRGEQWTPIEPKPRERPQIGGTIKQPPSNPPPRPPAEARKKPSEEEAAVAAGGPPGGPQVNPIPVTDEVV
Procedure: PMA-induced Superoxide Anion Formation. HL-60 cells were cultured in RPMI 1640 medium containing 10% FCS (passage 20-50). HL-60 cells were harvested by centrifugation (1000 rpm, 10 min), washed 2× with phosphate buffer (10 mM, pH 7.4) with NaCl (138 mM), KCl (2.67 mM), CaCl2 (0.901 mM), MgCl2 (0.493 mM) and glucose (1 mg/ml) to remove culture medium. The HL-60 cells (6×10^6/0.5 ml) were re-suspended in DPBS. After stimulation with PMA (10 μM), the HL-60 cells were incubated with cytochrome C (40 μM) with or without superoxide dismutase at 37° C. for 30 min. The reaction was stopped by centrifugation. Cytochrome C reduction was measured at 550 nm on a UV-Vis spectrophotometer (Agilent, Model 8453).
PMA-stimulated HL-60 cell O2.^− Formation: HL-60 cells were harvested by centrifugation (1000 rpm, 10 min), washed twice with DPBS with glucose to remove culture medium. The HL-60 cells (1.2×10^7/ml) were re-suspended in DPBS with glucose. After stimulation with PMA (10 μM), the HL-60 cells were incubated with cytochrome C (40 μM) with or without superoxide dismutase (500 units/mL) at 37° C. for 10 min and then the HL-60 cells were removed by centrifugation. Cytochrome C reduction in supernatants was measured at 550 nm using a UV-Vis spectrophotometer (Agilent, Model 8453).

[2] = system: BAEC; experiment: MPO-mediated BAEC injury (cell morphology); type: cell-based, bovine; conditions: MPO 2.5 μg/ml, H2O2 50 μM
Procedure: MPO-mediated BAEC Injury: BAEC (passage 6-8) were cultured in 24 well plates in DMEM containing 10% FBS until 70-80% confluent. The cells were washed with Hank's balanced salt solution (HBSS) 3 times and incubated with MPO (2.5 μg/mL) and H2O2±KYC at the concentrations indicated in HBSS for 30 min. Finally, BAEC were examined visually and images captured for permanent record using a Nikon Eclipse microscope (Model TS 100) fitted with a Nikon Digital Sight DS-U2 camera and NIS-Elements F 3.0 imaging software. Images are representative of 3 independent experiments.
KYC protects BAEC from MPO-induced injury. […] BAEC in 96 well were treated with 100 μl of HBSS containing MPO (2.5 μg/ml) and H2O2 (50 μM) for 20 min with or without KYC. Changes in cell morphology were recorded as described in a previous report by others.

[3] = target: T2, MPO (Homo sapiens, UniProt P05164); experiment: MPO-mediated LDL oxidation (conjugated diene formation, 234 nm); type: biochemical; design: purchased Lee Biosolutions (St. Louis, Mo.); conditions: for Conjugated diene formation in LDL (in words): MPO/H2O2 (300 μM)/nitrite, more than 2 hours
T2 sequence (P05164 49-745): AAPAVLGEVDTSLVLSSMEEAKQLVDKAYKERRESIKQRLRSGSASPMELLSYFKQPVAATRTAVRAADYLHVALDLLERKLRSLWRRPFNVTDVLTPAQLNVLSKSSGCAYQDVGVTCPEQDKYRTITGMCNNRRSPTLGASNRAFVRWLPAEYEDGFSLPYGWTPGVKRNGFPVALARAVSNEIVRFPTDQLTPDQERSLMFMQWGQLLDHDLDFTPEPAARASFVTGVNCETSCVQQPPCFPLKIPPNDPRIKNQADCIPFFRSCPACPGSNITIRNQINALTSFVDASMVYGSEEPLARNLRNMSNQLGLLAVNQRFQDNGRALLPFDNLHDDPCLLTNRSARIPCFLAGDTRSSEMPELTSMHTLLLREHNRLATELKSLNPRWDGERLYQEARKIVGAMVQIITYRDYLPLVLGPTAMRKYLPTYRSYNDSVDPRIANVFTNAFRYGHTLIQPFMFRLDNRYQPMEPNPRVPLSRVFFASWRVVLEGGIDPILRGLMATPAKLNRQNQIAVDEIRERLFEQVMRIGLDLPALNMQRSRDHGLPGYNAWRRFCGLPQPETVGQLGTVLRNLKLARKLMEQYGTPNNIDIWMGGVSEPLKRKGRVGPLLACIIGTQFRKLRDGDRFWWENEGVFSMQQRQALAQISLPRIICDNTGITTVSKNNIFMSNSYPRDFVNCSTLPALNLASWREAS
Procedure: MPO-mediated oxidation of LDL. […] LDL oxidation was monitored at 234 nm at room temperature on a HP UV/VIS spectrometer. Absorbance traces represent the average of duplicate experiments.
MPO-mediated LDL Oxidation. […] Rates of LDL oxidation were monitored at room temperature at 234 nm, the wavelength maximum for conjugated dienes.
MPO-mediated LDL Conjugated Diene Formation: Reaction mixtures contained LDL (0.15 mg/mL), NaNO2 (100 μM), H2O2 (100 μM), MPO (20 nM) and increasing concentrations of KYC or equimolar concentrations of various compounds in a phosphate buffer (100 mM, pH 7.4) containing DTPA (100 μM). Rates of LDL conjugated diene formation were determined by following changes in absorbance at 234 nm, the wavelength maximum for conjugated dienes, on a UV-Vis spectrophotometer (Agilent Model 8453) at room temperature.

In the case of CC(=O)N[C@@H](CCCCN)C(=O)N[C@@H](Cc1ccc(O)cc1)C(=O)N[C@@H](CS)C(N)=O [KYC, N-acetyl Lysyltyrosylcysteine Amide] (Ac-Lys-Tyr-Cys-NH2), the “O2.− production in PMA-stimulated HL-60 cells (in words)” value [1] is reported as “neither KYC nor KYC disulfide have any significant effect; also recorded: Neither KYC nor KYC disulfide had any significant effect”, the “BAEC morphology after MPO/H2O2 (in words)” value ([2]; 50 μM KYC) is reported as “almost the same morphology as cultures that were not exposed to MPO” and the “Protection of BAEC from MPO-induced injury (in words)” value ([2]; 20 min, increasing KYC) is reported as “dose-dependently increased protection”. For the same compound, the “Conjugated diene formation in LDL (in words)” value ([3]; 20 μM KYC) was “totally suppresses”, the “MPO/H2O2/nitrite-mediated LDL oxidation (in words)” value ([3]; 25 μM, H2O2 100 μM, NaNO2 100 μM) was “completely suppressed” and the “MPO/H2O2-mediated LDL oxidation in the absence of nitrite (in words)” value ([3]; 25 μM, without NaNO2) was “inhibited; also recorded: did not increase LDL oxidation”. The “Conjugated diene formation in LDL (in words)” value ([3]; 100 μM KYC) was “totally suppresses”.
